Test results published in PubChem BioAssay (NCI).
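Tested at 5 concentrations; 48 h exposure; 96-well plates; endpoints linearly interpolated, else capped at highest concentration. GI50 is the concentration that inhibits growth by half. TGI: total growth inhibition.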

Legend:
Assay in all cases: NCI-60 cell line screen, 48 h
[1] = test system: U251 CNS
[2] = test system: IGROV1 ovarian
[3] = test system: HL-60(TB) leukemia
[4] = test system: HS 578T breast
[5] = test system: UACC-257 melanoma
[6] = test system: NCI-H226 lung
[7] = test system: A549 NSCLC
[8] = test system: LOX IMVI melanoma
[9] = test system: MDA-MB-231 breast
[10] = test system: PC-3 prostate
[11] = test system: NCI-H522 lung
[12] = test system: MCF7 breast
[13] = test system: DU-145 prostate
[14] = test system: K-562 leukemia
[15] = test system: SF-268 CNS
[16] = test system: NCI/ADR-RES ovarian
[17] = test system: EKVX NSCLC
[18] = test system: 786-0 renal
[19] = test system: HCC-2998 colon
[20] = test system: HCT-15 colon
[21] = test system: BT-549 breast
[22] = test system: COLO 205 colon
[23] = test system: MDA-MB-468 breast
[24] = test system: OVCAR-5 ovarian
[25] = test system: OVCAR-4 ovarian
[26] = test system: SN12C renal
[27] = test system: SK-MEL-2 melanoma
[28] = test system: OVCAR-8 ovarian
[29] = test system: SW-620 colon
[30] = test system: SK-MEL-5 melanoma
[31] = test system: CAKI-1 renal
[32] = test system: HOP-62 NSCLC
[33] = test system: SF-539 CNS
[34] = test system: OVCAR-3 ovarian
[35] = test system: UO-31 renal
[36] = test system: NCI-H23 lung
[37] = test system: M14 melanoma
[38] = test system: SR leukemia
[39] = test system: CCRF-CEM leukemia
[40] = test system: HT29 colon
[41] = test system: HOP-92 NSCLC
[42] = test system: ACHN renal
[43] = test system: UACC-62 melanoma
[44] = test system: MDA-MB-435
[45] = test system: TK-10 renal
[46] = test system: RXF 393 renal
[47] = test system: SF-295 CNS
[48] = test system: NCI-H460 lung
[49] = test system: A498 renal
[50] = test system: SNB-75 CNS
[51] = test system: HCT-116 colon
[52] = test system: MOLT-4 leukemia
[53] = test system: MALME-3M melanoma
[54] = test system: SNB-19 CNS
[55] = test system: SK-MEL-28 melanoma
[56] = test system: T-47D breast
[57] = test system: KM12 colon
[58] = test system: SK-OV-3 ovarian

In the case of `CCCn1c(=O)c2[nH]c(-c3ccc(OCc4nc5ccccc5[nH]4)cc3)nc2n(CCC)c1=O`, the GI50 [1] is reported as 3.83 µM, the TGI [1] is reported as 18.4 µM and the GI50 [2] is reported as 15.3 µM. For the same molecule, the TGI [2] was 42.8 µM, the GI50 [3] was over 100 µM and the TGI [3] was over 100 µM. It also gave a GI50 [4] of 2.3 µM, a TGI [4] of 7.76 µM and a GI50 [5] of 48 µM. The TGI [5] was over 100 µM, the GI50 [6] was 2.4 µM and the TGI [6] was 7.25 µM. The GI50 [7] was 5.92 µM, the TGI [7] was over 100 µM and the GI50 [8] was 3.47 µM. It also gave a TGI [8] of 14.7 µM, a GI50 [9] of 3.37 µM and a TGI [9] of 12.6 µM. For the same molecule, the GI50 [10] was 17.6 µM, the TGI [10] was over 100 µM and the GI50 [11] was 11.3 µM. For the same molecule, the TGI [11] was 34.3 µM, the GI50 [12] was 3.32 µM and the TGI [12] was 18.6 µM. For the same molecule, the TGI [13] was over 100 µM, the GI50 [14] was over 100 µM and the TGI [14] was over 100 µM. For the same molecule, the GI50 [15] was 9.2 µM, the TGI [15] was 38.8 µM and the GI50 [16] was 19.2 µM. It also gave a TGI [16] of over 100 µM, a GI50 [17] of 23.5 µM and a TGI [17] of over 100 µM. The GI50 [18] was 2.83 µM, the TGI [18] was 10.6 µM and the GI50 [19] was 11.9 µM. It also gave a TGI [19] of over 100 µM, a GI50 [20] of 31.9 µM and a TGI [20] of over 100 µM. For the same molecule, the GI50 [21] was 8.41 µM, the TGI [21] was 45.5 µM and the GI50 [22] was over 100 µM. The TGI [22] was over 100 µM, the GI50 [23] was 3.13 µM and the TGI [23] was 16.1 µM. The GI50 [24] was 46.5 µM, the TGI [24] was over 100 µM and the GI50 [25] was 2.99 µM. It also gave a TGI [25] of 53 µM, a GI50 [26] of 9.67 µM and a TGI [26] of 45.7 µM. The GI50 [27] was 17.6 µM, the TGI [27] was 34.4 µM and the GI50 [28] was 8.28 µM. It also gave a TGI [28] of 45.4 µM, a GI50 [29] of 18 µM and a TGI [29] of over 100 µM. The GI50 [30] was 4.05 µM, the TGI [30] was 28 µM and the GI50 [31] was 2.95 µM. It also gave a TGI [31] of 11.9 µM, a GI50 [32] of 8.39 µM and a TGI [32] of 24.3 µM. It also gave a GI50 [33] of 2.12 µM, a TGI [33] of 5.25 µM and a GI50 [34] of 5.46 µM. It also gave a TGI [34] of 23.4 µM, a GI50 [35] of 14.5 µM and a TGI [35] of 43.4 µM. It also gave a GI50 [36] of 5.95 µM, a TGI [36] of 18.1 µM and a GI50 [37] of 26.2 µM. The TGI [37] was over 100 µM, the GI50 [38] was over 100 µM and the TGI [38] was over 100 µM. For the same molecule, the GI50 [39] was over 100 µM, the TGI [39] was over 100 µM and the GI50 [40] was 13.2 µM. The TGI [40] was over 100 µM, the GI50 [41] was 5.18 µM and the TGI [41] was 25.3 µM. For the same molecule, the GI50 [42] was 5 µM, the TGI [42] was 24.9 µM and the GI50 [43] was 12 µM. It also gave a TGI [43] of 28.8 µM, a GI50 [44] of 13 µM and a TGI [44] of over 100 µM. The GI50 [45] was 6.89 µM, the TGI [45] was 22.2 µM and the GI50 [46] was 2.06 µM. The TGI [46] was 6.94 µM, the GI50 [47] was 3.04 µM and the TGI [47] was 13.3 µM. The GI50 [48] was 3.7 µM, the TGI [48] was 15.1 µM and the GI50 [49] was 14.3 µM. For the same molecule, the TGI [49] was 32.3 µM, the GI50 [50] was 1.63 µM and the TGI [50] was 5.21 µM. For the same molecule, the GI50 [51] was 3.94 µM, the TGI [51] was over 100 µM and the GI50 [52] was over 100 µM. The TGI [52] was over 100 µM, the GI50 [53] was 3.43 µM and the TGI [53] was 16.4 µM. For the same molecule, the GI50 [54] was 13.9 µM, the TGI [54] was 33.1 µM and the GI50 [55] was 33.5 µM. The TGI [55] was over 100 µM, the GI50 [56] was 27.9 µM and the TGI [56] was over 100 µM. For the same molecule, the GI50 [57] was over 100 µM, the TGI [57] was over 100 µM and the GI50 [58] was 15 µM. It also gave a TGI [58] of 32 µM.
